A word on the MIC: it is the smallest concentration in the dilution series that meets the test's criterion for growth inhibition. A low value points to inhibition by little substance.

The source of these data is patent US6503881B2 (priority 1996, dated 2003).

Like-named read-outs stand apart in the source and are kept apart here.

Test [1] is classed as biochemical.
In another test the test system is E. coli strain ML-35. The format is cell-based. To be noted: cells pre-incubated with vancomycin, compared to no pre-incubation.
The test system of test [2] is MSSA (Smith, ATCC #19640). The format is in vivo, S. aureus. To be noted: formulation D.
The test system of test [3] is S. epidermidis (ATCC #12228). To be noted: in vivo, iv.
The test system of the next test is MRSA (ATCC #33591). The test is classed as in vivo, S. aureus. To be noted: for Percentage of Animals Surviving, Treatment: MRSA ip infection in mice, iv in formulation D, protocol not named in table (1 mg/kg (20 min)); for survival: iv.
The next test relates to bacteria. To be noted: agarose dilution assay.
In test [4] the test system is microorganisms with acquired resistance. To be noted: peptide + Tobramycin; S. maltophilia SMA030.

As for I L K K W P W W P W R R K [MBI 11CN], the “membrane permeabilizing activity (ANTS/DPX dye release)” value in test [1] was “virtually abolishes membrane permeabilizing activity”. The ONPG hydrolysis diminished entry in the test on E. coli strain ML-35 is listed as “approximately 50%”. The “survival (mice rescued)” value in test [2] (ip 35.7 mg/kg, 60 minutes post-infection, 8 days) was determined as 100%. Moreover, the “activity at lower dose levels” value in test [2] (ip below 35.7 mg/kg) is recorded as “little or no activity”. For the same substance, the survival of mice entry in test [3] is given as “prolongs the survival of the mice”. Further, the “Percentage of Animals Surviving, Treatment” value is 70% with MRSA (ATCC #33591) (6 hours post-infection) and 30% with MRSA (ATCC #33591) (10 hours post-infection). The survival entry with MRSA (ATCC #33591) (1 mg/kg (20 min) protocol, injections 5 minutes apart) is given as “delayed the death of the mice to a significant extent”; with MRSA (ATCC #33591) (5 mg/kg and 1 mg/kg (2 hr) protocols, injections 1 hour apart) it was “no improvement in survivability over the negative control”. For the same substance, the minimum inhibitory concentration (MIC) in the test with bacteria (E. coli ATCC 25922) was 16 µg/mL; against bacteria (E. coli NCTC 10418), 4 µg/mL; against bacteria (E. faecium ATCC 29212), 8 µg/mL; against bacteria (P. aeruginosa ATCC 27853), over 128 µg/mL; against bacteria (P. aeruginosa NCTC 10662) it was over 128 µg/mL; in the test on bacteria (S. aureus MRSA9) it was 2 µg/mL. Besides, the minimal inhibitory concentration (MIC) with bacteria (S. aureus MRSA13) is 16 µg/mL; in the test on bacteria (S. aureus MRSA17), 4 µg/mL; in the test with bacteria (S. marcescens SM82), over 128 µg/mL; with bacteria (S. pneumoniae 406LE8) it was over 128 µg/mL; in the test on bacteria (S. pneumoniae 60120), over 128 µg/mL; against bacteria (S. pneumoniae ATCC 49619), 64 µg/mL. Also, the FIC in test [4] worked out at 9.27.
